Test results taken from US7348316B2, “Use of an anti-endotoxin drug in the prevention and treatment of disease” (Eisai R&D Management Co., Ltd., priority 2003, dated 2008).

System: endotoxin
Test: administration of E5564 to humans / endotoxin challenge studies
Format: in vivo
Description: We have discovered that administration of E5564 to humans in a single bolus or by intermittent infusion is effective at preventing the clinical effects of endotoxemia. […] Thus, we have discovered drug administration regimens involving single bolus or intermittent infusion, to prevent or treat endotoxemia and related conditions and disorders (e.g., sepsis) in humans.

CCCCCC/C=C\CCCCCCCCC[C@@H](O)N[C@H]1[C@H](OCC2O[C@H](OP(=O)(O)O)[C@H](NC(=O)CC(=O)CCCCCCCCCCC)[C@@H](OCCCCCCCCCC)[C@@H]2O)O[C@H](COC)[C@@H](OP(=O)(O)O)[C@@H]1OCC[C@@H](CCCCCCC)OC (stereo partly drawn) [Compound E5564, α-D-Glucopyranose, 3-O-decyl-2-deoxy-6-O-[2-deoxy-3-O-[(3R)-3-methoxydecyl)-6-O-methyl-2-[[(11Z)-1-oxo-11-octadecenyl)amino]-4-O-phosphono-β-D-glucopyranosyl]-2-[(1,3-dioxotetradecyl)amino]-,1-(dihydrogen phosphate)]
activity of the drug after cessation of administration (doses higher than the minimum dose found to be effective in endotoxin challenge studies): prolonged activity
preventing the clinical effects of endotoxemia (humans, single bolus or intermittent infusion): effective
activity of the drug upon cessation of administration (previous studies): decreases rapidly
clearance from circulation upon cessation of administration (previous studies): not cleared from circulation
